From ChEMBL document CHEMBL1201862, “PubChem BioAssay data set” (2004)
Calls of active or inactive are those of the source.

Tests used:
[1] = A549 cell cytotoxicity, dose response, cytotoxicity control, plate reader, cherry-pick, antagonist series (AID 743412); format: functional, cell-based
[2] = NIH3T3 cell viability loss – ATP luminescence, mouse fibroblasts, counter-screen, dose response (AID 2010); format: functional, cell-based;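 also: cells exposed to compound for about 90 hours before reading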
[3] = Trypanosoma cruzi growth suppression in host cells – NIH3T3 host cells, beta-gal luminescence, confirmation (AID 2044); format: functional, cell-based;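 also: intracellular parasites grown in NIH/3T3 mouse fibroblasts as host cells; luminescent beta-galactosidase reporter signal from transgenic T. cruzi replicating inside host cells; inhibitors lower the luminescence signal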
[4] = toxicity toward HepG2 liver cells – cell-based, plate reader, cherry-pick, antagonist series, cytotoxicity control, dose response (AID 743416); format: functional
[5] = molecular target: T1, Replicative DNA helicase DnaB (Mycobacterium tuberculosis, UniProt P9WMR3); experiment: DnaB intein splicing inhibitors, dose response, biochemical, cell-free fluorescence (AID 449749); format: functional
T1 sequence (P9WMR3 whole entry): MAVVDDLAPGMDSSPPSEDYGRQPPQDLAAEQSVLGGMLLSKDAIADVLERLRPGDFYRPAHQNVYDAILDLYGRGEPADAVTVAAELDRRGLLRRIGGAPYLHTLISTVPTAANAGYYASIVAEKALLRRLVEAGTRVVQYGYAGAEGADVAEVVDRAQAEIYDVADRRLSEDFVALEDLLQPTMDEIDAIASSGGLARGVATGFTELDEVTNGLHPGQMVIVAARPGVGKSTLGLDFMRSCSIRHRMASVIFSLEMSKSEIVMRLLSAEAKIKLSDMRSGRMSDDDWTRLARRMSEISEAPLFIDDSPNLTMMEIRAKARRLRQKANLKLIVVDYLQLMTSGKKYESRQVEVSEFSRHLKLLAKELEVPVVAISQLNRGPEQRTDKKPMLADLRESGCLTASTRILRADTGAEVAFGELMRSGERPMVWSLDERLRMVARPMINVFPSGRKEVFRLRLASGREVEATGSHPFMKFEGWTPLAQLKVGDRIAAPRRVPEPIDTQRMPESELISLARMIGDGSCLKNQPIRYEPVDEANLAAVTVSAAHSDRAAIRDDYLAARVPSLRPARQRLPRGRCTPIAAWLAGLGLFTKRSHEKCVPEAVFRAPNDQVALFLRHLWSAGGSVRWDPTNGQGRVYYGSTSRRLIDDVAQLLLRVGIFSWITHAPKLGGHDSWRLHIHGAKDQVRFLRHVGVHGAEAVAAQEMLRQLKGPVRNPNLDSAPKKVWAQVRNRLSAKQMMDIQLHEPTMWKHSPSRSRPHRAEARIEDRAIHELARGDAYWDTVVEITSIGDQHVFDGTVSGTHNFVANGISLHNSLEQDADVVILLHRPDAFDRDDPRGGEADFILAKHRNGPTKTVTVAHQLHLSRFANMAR

[6] = molecular target: Kappa-type opioid receptor (Homo sapiens, UniProt P41145); format: functional
[7] = molecular target: Delta-type opioid receptor (Homo sapiens, UniProt P41143); experiment: HTS Image-Based Screen for Agonists of the DOR Receptor. [Related pubchem assays (depositor defined):AID1777, AID1786, AID2133]; format: functional
[8] = molecular target: T2, Heat shock factor protein 1 (Mus musculus, UniProt P38532); experiment: decrease of HSF1-responsive luciferase luminescence – cell-based, NIH3T3, dose retest, confirmation (AID 2382); format: functional;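 also: NIH3T3 fibroblasts with HSF1-driven luciferase reporter stressed by proteasome inhibitor MG132; luminescence from HSF1-driven luciferase expression after 8 hours of MG132 stress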
T2 sequence (P38532 whole entry): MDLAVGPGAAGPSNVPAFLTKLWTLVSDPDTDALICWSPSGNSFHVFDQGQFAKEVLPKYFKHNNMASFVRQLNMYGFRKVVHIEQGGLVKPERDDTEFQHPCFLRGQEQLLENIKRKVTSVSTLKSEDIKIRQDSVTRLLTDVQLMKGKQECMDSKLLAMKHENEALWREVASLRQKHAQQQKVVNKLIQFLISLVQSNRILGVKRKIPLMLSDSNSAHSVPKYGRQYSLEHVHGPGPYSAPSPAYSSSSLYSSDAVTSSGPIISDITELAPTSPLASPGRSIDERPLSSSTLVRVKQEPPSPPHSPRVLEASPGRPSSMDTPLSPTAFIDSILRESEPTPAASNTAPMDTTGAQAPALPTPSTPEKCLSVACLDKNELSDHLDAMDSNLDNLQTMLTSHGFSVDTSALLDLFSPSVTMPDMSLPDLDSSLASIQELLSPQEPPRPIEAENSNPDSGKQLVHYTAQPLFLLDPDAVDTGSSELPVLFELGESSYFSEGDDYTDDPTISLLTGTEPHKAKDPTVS

[9] = NIH-3T3 fibroblast cytotoxicity, dose response, cytotoxicity control, cell-based, fluorescence, Alamar Blue, secondary assay (AID 2327); format: functional;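 also: NIH-3T3 mouse fibroblasts cultured with fluconazole at 8 µg/mL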

Delta-type opioid receptor, sequence (P41143 whole entry): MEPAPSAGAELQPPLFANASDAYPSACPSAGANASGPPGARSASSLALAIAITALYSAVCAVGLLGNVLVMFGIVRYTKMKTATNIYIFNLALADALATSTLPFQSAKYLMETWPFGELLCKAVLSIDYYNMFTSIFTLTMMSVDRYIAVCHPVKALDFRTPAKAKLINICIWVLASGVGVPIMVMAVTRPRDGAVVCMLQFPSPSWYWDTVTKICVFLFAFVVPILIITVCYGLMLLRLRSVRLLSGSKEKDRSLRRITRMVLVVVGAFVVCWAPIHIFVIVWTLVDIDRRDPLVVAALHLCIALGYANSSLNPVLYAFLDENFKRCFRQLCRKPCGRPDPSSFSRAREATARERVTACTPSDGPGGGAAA
Kappa-type opioid receptor, sequence (P41145 whole entry): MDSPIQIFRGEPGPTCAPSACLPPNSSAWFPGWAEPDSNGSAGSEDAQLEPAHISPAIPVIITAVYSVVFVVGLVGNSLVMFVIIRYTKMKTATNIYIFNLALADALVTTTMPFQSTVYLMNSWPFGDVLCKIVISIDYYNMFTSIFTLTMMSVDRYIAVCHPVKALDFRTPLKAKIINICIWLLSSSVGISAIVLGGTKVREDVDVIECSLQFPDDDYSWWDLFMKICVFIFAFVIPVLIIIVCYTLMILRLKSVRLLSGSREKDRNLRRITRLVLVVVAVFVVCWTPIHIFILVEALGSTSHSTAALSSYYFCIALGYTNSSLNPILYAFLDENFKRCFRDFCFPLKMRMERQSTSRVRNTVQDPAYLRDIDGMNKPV

Row | SMILES | AC50 [1] | EC50 [2] | EC50 [3] | AC50 [4] | AC50 [5] | IC50 [6] | EC50 [7] | EC50 [8] | EC50 [9]
1 | COc1cc(NC(=O)Cn2ncc(Cl)c(Cl)c2=O)c(C)cc1[N+](=O)[O-] | 5.78 µM (active) | 3.17 µM (active) | 2.39 µM (active) | 9.1 µM (active) | 26.6 µM (active) | 12.9 µM (active) | > 32 µM (inactive) | 4.33 µM (active) | –
2 | Cc1ccc(C)c(S(=O)(=O)N2CCN(Cc3ccc(O)c4ncccc34)CC2)c1 | – | – | – | – | – | – | – | – | 81.5 µM (active)
